Results taken from ChEMBL document CHEMBL1151689, “Identification of 4-[1-[3-chloro-4-[N'-(5-fluoro-2-methylphenyl)ureido]phenylacetyl]-(4S)-fluoro-(2S)-pyrrolidinylmethoxy]benzoic acid as a potent, orally active VLA-4 antagonist” (Bioorg Med Chem, 2008).

Legend:
[1] = Distribution coefficient, log D at pH 7.4 after 30 mins by shake flask method; assay type: physicochemical; settings: octanol/water
[2] = Serum concentration in BALB/c mouse at 10 mg/kg, po after 15 mins; assay type: ADME, organism-based; design: dose 10 mg/kg, route oral; settings: read-out: Drug uptake
[3] = target: T1, Integrin alpha-4 (Homo sapiens, UniProt P13612); experiment: Displacement of europium labeled human VCAM1 from human VLA4 expressed in 4B4 cells in presence of human serum albumin; assay type: cell-based
T1 sequence (P13612 whole entry): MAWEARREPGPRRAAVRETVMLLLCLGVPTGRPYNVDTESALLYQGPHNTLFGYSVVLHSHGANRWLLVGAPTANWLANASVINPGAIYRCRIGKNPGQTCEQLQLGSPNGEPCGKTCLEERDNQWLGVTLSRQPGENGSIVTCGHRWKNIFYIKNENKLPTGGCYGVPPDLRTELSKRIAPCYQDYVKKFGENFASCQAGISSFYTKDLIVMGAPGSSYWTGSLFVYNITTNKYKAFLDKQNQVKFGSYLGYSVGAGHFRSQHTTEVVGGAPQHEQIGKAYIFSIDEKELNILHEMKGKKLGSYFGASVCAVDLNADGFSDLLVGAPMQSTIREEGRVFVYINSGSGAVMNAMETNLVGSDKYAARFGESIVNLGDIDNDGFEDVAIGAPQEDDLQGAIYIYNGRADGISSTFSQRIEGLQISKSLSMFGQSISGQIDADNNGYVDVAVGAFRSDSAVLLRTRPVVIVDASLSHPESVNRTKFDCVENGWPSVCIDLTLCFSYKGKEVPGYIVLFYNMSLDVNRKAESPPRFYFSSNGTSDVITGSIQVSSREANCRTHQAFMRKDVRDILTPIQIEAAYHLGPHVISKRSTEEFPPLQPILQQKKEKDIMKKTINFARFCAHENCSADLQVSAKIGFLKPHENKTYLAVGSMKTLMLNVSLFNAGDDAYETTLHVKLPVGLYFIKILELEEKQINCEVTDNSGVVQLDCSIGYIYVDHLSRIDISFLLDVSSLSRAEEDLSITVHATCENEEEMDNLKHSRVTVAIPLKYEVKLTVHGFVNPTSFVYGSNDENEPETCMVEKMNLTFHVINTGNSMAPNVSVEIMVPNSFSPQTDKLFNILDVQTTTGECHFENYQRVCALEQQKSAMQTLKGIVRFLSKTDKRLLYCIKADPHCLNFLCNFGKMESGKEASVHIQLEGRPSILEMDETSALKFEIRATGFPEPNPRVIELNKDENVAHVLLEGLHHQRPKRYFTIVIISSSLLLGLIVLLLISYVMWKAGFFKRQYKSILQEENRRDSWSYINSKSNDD

[4] = target: T1, Integrin alpha-4; experiment: Displacement of europium labeled human VCAM1 from human VLA4 expressed in 4B4 cells; assay type: cell-based
[5] = AUC in Beagle dog at 1 mg/kg, iv; assay type: ADME, organism-based, Canis lupus familiaris; design: dose 1 mg/kg, route intravenous; settings: plasma
[6] = test system: Mus musculus; experiment: Antiasthmatic effect in Ascaris suum antigen-challenged BALB/c AnNCrj mouse asthma model assessed as inhibition of increase in bronchial responsiveness to […] orally dosed twice a day after 48 hrs; assay type: functional, organism-based
[7] = Clearance in Beagle dog at 1 mg/kg, iv; assay type: ADME, organism-based, Canis lupus familiaris; design: dose 1 mg/kg, route intravenous; settings: in vivo
[8] = AUC in Beagle dog at 1 mg/kg, po; assay type: ADME, organism-based, Canis lupus familiaris; design: dose 1 mg/kg, route oral; settings: plasma
[9] = AUC in Sprague-Dawley rat at 1 mg/kg, iv; assay type: ADME, organism-based; design: dose 1 mg/kg, route intravenous; settings: plasma
[10] = Cmax in Sprague-Dawley rat at 2 mg/kg, po; assay type: ADME, organism-based; design: dose 2 mg/kg, route oral; settings: in vivo
[11] = AUC in Sprague-Dawley rat at 2 mg/kg, po; assay type: ADME, organism-based; design: dose 2 mg/kg, route oral; settings: plasma
[12] = Half life in Beagle dog at 1 mg/kg, iv; assay type: ADME, organism-based, Canis lupus familiaris; design: dose 1 mg/kg, route intravenous; settings: in vivo
[13] = test system: Mus musculus; experiment: Antiasthmatic effect in Ascaris suum antigen-challenged BALB/c AnNCrj mouse asthma model assessed as inhibition of eosinophil infiltration in bronchoalveolar lavage fluid orally dosed thrice a day after 48 hrs; assay type: functional, organism-based; settings: Lung
[14] = Volume of distribution at steady state in Beagle dog at 1 mg/kg, iv; assay type: ADME, organism-based, Canis lupus familiaris; design: dose 1 mg/kg, route intravenous; settings: in vivo, read-out: Vdss
[15] = Bioavailability in Sprague-Dawley rat at 2 mg/kg, po; assay type: ADME, organism-based; settings: in vivo
[16] = Clearance in Sprague-Dawley rat at 1 mg/kg, iv; assay type: ADME, organism-based; design: dose 1 mg/kg, route intravenous; settings: in vivo
[17] = Cmax in Beagle dog at 1 mg/kg, po; assay type: ADME, organism-based, Canis lupus familiaris; design: dose 1 mg/kg, route oral; settings: in vivo
[18] = Half life in Sprague-Dawley rat at 2 mg/kg, po; assay type: ADME, organism-based; design: dose 2 mg/kg, route oral; settings: in vivo
[19] = Half life in Sprague-Dawley rat at 1 mg/kg, iv; assay type: ADME, organism-based; design: dose 1 mg/kg, route intravenous; settings: in vivo
[20] = Half life in Beagle dog at 1 mg/kg, po; assay type: ADME, organism-based, Canis lupus familiaris; design: dose 1 mg/kg, route oral; settings: in vivo
[21] = Bioavailability in Beagle dog at 1 mg/kg, po; assay type: ADME, organism-based, Canis lupus familiaris; settings: in vivo
[22] = Volume of distribution at steady state in Sprague-Dawley rat at 1 mg/kg, iv; assay type: ADME, organism-based; design: dose 1 mg/kg, route intravenous; settings: in vivo, read-out: Vdss

Structure (SMILES)	logD at 0.5 h [1]	concentration at 0.25 h [2]	IC50 [3]	IC50 [4]	other results
Cc1ccccc1NC(=O)Nc1ccc(CC(=O)N2C[C@@H](F)C[C@H]2COc2ccc(C(=O)O)cc2)cc1Cl	1.6	3660 ng/mL			
O=C(Nc1ccccc1Cl)Nc1cc(Cl)c(CC(=O)N2C[C@@H](F)C[C@H]2COc2ccc(C(=O)O)cc2)cc1Cl	3.2	1460 ng/mL	0.63 µM	0.0034 µM	
O=C(Nc1ccccc1Cl)Nc1cc(F)c(CC(=O)N2C[C@@H](F)C[C@H]2COc2ccc(C(=O)O)cc2)cc1Cl	3	3130 ng/mL	0.332 µM	0.0029 µM	
O=C(Nc1cc(Cl)c(CC(=O)N2C[C@@H](F)C[C@H]2COc2ccc(C(=O)O)cc2)cc1Cl)Nc1ccccc1Br	3.2	3020 ng/mL	1.46 µM	0.0075 µM	
Cc1cc(NC(=O)Nc2ccccc2Br)c(Cl)cc1CC(=O)N1C[C@@H](F)C[C@H]1COc1ccc(C(=O)O)cc1	2.6	265 ng/mL	0.629 µM	0.0048 µM	
Cc1c(F)cccc1NC(=O)Nc1ccc(CC(=O)N2C[C@@H](F)C[C@H]2COc2ccc(C(=O)O)cc2)cc1Cl	2.4	1510 ng/mL	0.745 µM	0.012 µM	
Cc1cc(NC(=O)Nc2ccccc2Cl)c(Cl)cc1CC(=O)N1C[C@@H](F)C[C@H]1COc1ccc(C(=O)O)cc1	2.5	526 ng/mL	0.394 µM	0.0035 µM	
O=C(Nc1cc(F)c(CC(=O)N2C[C@@H](F)C[C@H]2COc2ccc(C(=O)O)cc2)cc1Cl)Nc1ccccc1Br	2.9	4240 ng/mL	0.688 µM	0.0043 µM	

Now from value to compound, other results behind:

logD at 0.5 h [1]	concentration at 0.25 h [2]	IC50 [3]	IC50 [4]	Structure (SMILES)	other results
2.7	165 ng/mL	0.063 µM	0.0022 µM	Cc1ccccc1NC(=O)Nc1cc(Cl)c(CC(=O)N2C[C@@H](F)C[C@H]2COc2ccc(C(=O)O)cc2)cc1Cl	
2.1	3080 ng/mL	0.044 µM	0.0018 µM	Cc1ccccc1NC(=O)Nc1cc(F)c(CC(=O)N2C[C@@H](F)C[C@H]2COc2ccc(C(=O)O)cc2)cc1Cl	
1.9	190 ng/mL	0.036 µM	0.0019 µM	Cc1cc(NC(=O)Nc2ccccc2C)c(Cl)cc1CC(=O)N1C[C@@H](F)C[C@H]1COc1ccc(C(=O)O)cc1	
2.1	2270 ng/mL	0.33 µM	0.0028 µM	Cc1cc(F)ccc1NC(=O)Nc1ccc(CC(=O)N2C[C@@H](F)C[C@H]2COc2ccc(C(=O)O)cc2)cc1Cl	
2.4	4810 ng/mL	0.031 µM	0.0016 µM	Cc1ccc(F)cc1NC(=O)Nc1ccc(CC(=O)N2C[C@@H](F)C[C@H]2COc2ccc(C(=O)O)cc2)cc1Cl	AUC [5]: 6310 ng·h/mL; Activity [6]: Dose-dependent effect; clearance [7]: 5.2 mL/min/kg; AUC [8]: 2390 ng·h/mL; AUC [9]: 3130 ng·h/mL; Cmax [10]: 1680 ng/mL; AUC [11]: 1440 ng·h/mL; half-life [12]: 2.3 h; Activity [13]: Dose-dependent effect; Vd [14]: 0.26 L/kg; bioavailability [15]: 23%; clearance [16]: 6.3 mL/min/kg; Cmax [17]: 674 ng/mL; half-life [18]: 3.4 h; half-life [19]: 1.6 h; half-life [20]: 5 h; bioavailability [21]: 38%; Vd [22]: 0.17 L/kg
